Experimental data as given in ChEMBL document CHEMBL1130937, “Stereoselective synthesis of a novel and bifunctional endothelin antagonist, IRL 3630” (Bioorg Med Chem Lett, 1998).

Assays:
[1] = molecular target: T1, Endothelin receptor type B (Homo sapiens, UniProt P24530); assay: Compound was tested for the binding affinity against Endothelin B receptor
T1 sequence (P24530 whole entry): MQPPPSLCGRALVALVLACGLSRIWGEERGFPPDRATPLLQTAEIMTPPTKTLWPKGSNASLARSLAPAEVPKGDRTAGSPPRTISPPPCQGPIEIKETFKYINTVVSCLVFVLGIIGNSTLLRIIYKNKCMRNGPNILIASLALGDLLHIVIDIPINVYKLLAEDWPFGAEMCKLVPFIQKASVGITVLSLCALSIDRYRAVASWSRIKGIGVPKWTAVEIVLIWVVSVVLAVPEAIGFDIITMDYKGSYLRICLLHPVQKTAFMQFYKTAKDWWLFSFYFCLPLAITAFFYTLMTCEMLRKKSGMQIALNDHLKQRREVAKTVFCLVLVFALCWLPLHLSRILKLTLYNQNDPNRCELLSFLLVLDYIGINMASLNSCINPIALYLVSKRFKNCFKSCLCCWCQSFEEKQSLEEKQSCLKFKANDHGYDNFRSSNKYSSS

[2] = molecular target: T2, Endothelin-1 receptor (Homo sapiens, UniProt P25101); assay: Compound was tested for the binding affinity against Endothelin A receptor
T2 sequence (P25101 whole entry): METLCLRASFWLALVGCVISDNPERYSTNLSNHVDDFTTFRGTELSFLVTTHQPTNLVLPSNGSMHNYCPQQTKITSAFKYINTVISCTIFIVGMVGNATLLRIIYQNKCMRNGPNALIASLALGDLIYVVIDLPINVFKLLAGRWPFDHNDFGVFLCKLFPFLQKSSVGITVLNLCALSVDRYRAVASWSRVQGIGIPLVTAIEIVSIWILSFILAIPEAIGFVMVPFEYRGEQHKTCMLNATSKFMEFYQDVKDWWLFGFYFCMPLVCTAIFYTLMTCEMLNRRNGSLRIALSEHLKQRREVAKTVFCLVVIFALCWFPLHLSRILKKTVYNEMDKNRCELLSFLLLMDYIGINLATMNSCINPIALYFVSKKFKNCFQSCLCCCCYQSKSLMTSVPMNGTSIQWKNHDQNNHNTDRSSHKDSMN

Ki [1] [µM]	Ki [2] [µM]	SMILES
1.2	6.8	CCCCS(=O)(=O)NC(=O)[C@@H](NC(=O)[C@H](Cc1ccc(-c2ccno2)cc1)N(C)C(=O)c1cc(C)cc(C)c1)C(C)C
1.2	27	CCCCS(=O)(=O)NC(=O)[C@H](NC(=O)[C@H](Cc1ccc(-c2ccno2)cc1)N(C)C(=O)c1cc(C)cc(C)c1)C(C)C
0.024	0.85	CCCCS(=O)(=O)NC(=O)[C@H](NC(=O)[C@@H](Cc1ccc(-c2ccno2)cc1)N(C)C(=O)c1cc(C)cc(C)c1)C(C)C
	0.0015	CCCCS(=O)(=O)NC(=O)[C@@H](NC(=O)[C@@H](Cc1ccc(-c2ccno2)cc1)N(C)C(=O)c1cc(C)cc(C)c1)C(C)C
